# Source: patent US20150328220A1, “METHODS OF TREATING CHRONIC KIDNEY DISEASE CHARACTERIZED BY MACROALBUMINURIA” (Concert Pharmaceuticals, Inc., priority 2014, published 2015)
# Columns and labels:
# Assay type in all cases: in vivo, human
# [1] = test system: patients with type 2 diabetic kidney disease and macroalbuminuria; assay: Phase 2 placebo-controlled clinical trial, 48 weeks: serum creatinine levels; settings: for patients who experienced a 50% or greater increase in serum creatinine levels: after 48 weeks
# Method: (§1) A Phase 2 placebo-controlled clinical trial of Compound (V) was conducted in patients with type 2 diabetic kidney disease and macroalbuminuria. All patients enrolled in the clinical trial were concurrently treated with angiotensin modulators. The purpose of the trial was to compare Compound (V) to placebo in terms of safety and efficacy with respect to measures of renal function such as UACR, serum creatinine levels, and estimated glomerular filtration rate.
# (§2) The clinical trial consists of three parts, two of which were completed and a third part that is on-going. Part 1 was a double-blind, parallel, two-arm, placebo-controlled study evaluating the safety and efficacy of 600 mg of Compound (V) twice daily for 24 weeks. 182 patients were enrolled in this first part of the trial and 151 patients completed Part 1. Part 2 was a blinded 24-week extension study in which all patients who completed Part 1 were eligible to continue receiving 600 mg of Compound (V) or placebo twice daily. 143 patients were enrolled in this part of the clinical trial and have completed dosing. 123 of the 143 patients that were enrolled in Part 2 of the clinical trial completed Part 2. The combined 48 weeks of data from Parts 1 and 2 of the clinical trial have been analyzed. 102 patients enrolled in Part 3 which is a 48 week open-label extension study that is on-going. All patients who completed Part 2 were eligible to receive 600 mg of Compound (V) twice daily.
# The key criteria for patients to be included in the clinical trial were (a) eGFR from 23 to 89 mL/min/1.73 m^2, a measure of kidney function which indicates mild to moderately severe type 2 diabetic kidney disease; (b) having been on a stable angiotensin modulation regimen for a minimum of four weeks prior to initiating screening and nine weeks prior to initiating dosing; (c) blood pressure less than or equal to 145/90 mm Hg; (d) glycosylated hemoglobin A1c (HbA1c) less than or equal to 10.5%, and (e) UACR greater than or equal to 200 mg/g in male patients and 300 mg/g in female patients, ratios of albumin to creatinine that are indicative of substantial kidney damage in men and women, but not more than 5,000 mg/g, a ratio indicative of severe kidney disease.
# urinary fibronectin = assay: Phase 2 placebo-controlled clinical trial, 48 weeks: urinary fibronectin (fibrotic biomarker)
# Method: as §1
# as §2, with “All patients who completed Part 2 were eligible to receive 600 mg of Compound (V) twice daily.” left out
# plasma collagen IV = assay: Phase 2 placebo-controlled clinical trial, 48 weeks: plasma collagen IV (fibrotic biomarker); settings: week 48 (FIG. 3)
# Method: as §1
# as §2, with “All patients who completed Part 2 were eligible to receive 600 mg of Compound (V) twice daily.” left out
structure (smiles),measurement,setting,value
[2H]C([2H])([2H])[C@H](O)C([2H])([2H])CCCn1c(=O)c2c(ncn2C)n(C)c1=O [Compound (V)],increase in mean serum creatinine level over the 48 weeks of treatment,"[1]; 600 mg twice daily, 48 weeks, 65 patients, overall population, preliminary analysis",0.13 mg/dL
same,patients who experienced a 50% or greater increase in serum creatinine levels,"[1]; overall population, one out of 65 patients, p=0.026 vs placebo, post-hoc",1.5%
same,patients who experienced a 50% or greater increase in serum creatinine levels,"[1]; subpopulation having UACR greater than 850 mg/g, one out of 31 patients, p<0.0409 vs placebo",3.1%
same,improvement in serum creatinine increase as compared to placebo,"[1]; at 48 weeks, 600 mg twice daily, p=0.057 two-tailed",38%
same,less urine fibronectin versus placebo,"urinary fibronectin; week 48, overall population (FIG. 1)",59%
same,decrease in urine fibronectin relative to placebo,"urinary fibronectin; week 48, subpopulation having UACR greater than 850 mg/g, p<0.01 (FIG. 2)",73%
same,less plasma collagen IV versus placebo,plasma collagen IV,18%
